pIC50: −log10 of the molar value. Where a name gives a salt, the structure may show the parent alone.
Key:
[1] = target: T1, Recombinant human IKKβ (residues 1-737) (Homo sapiens, UniProt O14920); experiment: IKK2 assay (TR-FRET); assay type: biochemical; details: ATP 1 μM final, read-out: pIC50 against IKK2 (converted)
T1 construct: Recombinant human IKKβ (residues 1-737); GST (C); made in house
T1 sequence (O14920 1-737): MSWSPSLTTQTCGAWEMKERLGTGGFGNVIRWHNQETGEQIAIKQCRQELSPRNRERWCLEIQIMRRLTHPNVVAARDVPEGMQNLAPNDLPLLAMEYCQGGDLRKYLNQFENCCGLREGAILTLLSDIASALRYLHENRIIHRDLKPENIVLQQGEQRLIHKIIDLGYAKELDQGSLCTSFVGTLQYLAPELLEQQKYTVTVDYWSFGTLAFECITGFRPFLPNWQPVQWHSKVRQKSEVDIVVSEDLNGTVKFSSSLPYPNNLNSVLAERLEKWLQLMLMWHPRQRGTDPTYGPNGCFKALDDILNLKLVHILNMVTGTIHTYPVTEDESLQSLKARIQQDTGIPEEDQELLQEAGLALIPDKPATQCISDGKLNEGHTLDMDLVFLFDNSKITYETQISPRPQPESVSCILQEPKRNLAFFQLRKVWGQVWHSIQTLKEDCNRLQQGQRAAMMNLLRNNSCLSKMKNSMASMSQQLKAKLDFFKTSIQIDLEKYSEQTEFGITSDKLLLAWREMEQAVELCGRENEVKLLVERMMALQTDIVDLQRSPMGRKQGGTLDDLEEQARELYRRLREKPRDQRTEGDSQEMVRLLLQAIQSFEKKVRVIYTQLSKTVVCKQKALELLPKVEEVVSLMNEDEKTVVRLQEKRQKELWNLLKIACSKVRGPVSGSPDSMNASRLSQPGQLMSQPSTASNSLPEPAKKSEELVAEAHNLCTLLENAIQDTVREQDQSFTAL
Method in brief: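 TR-FRET readout (665 nm over 620 nm Eu reference) of GST-IB Ser32/36 phosphorylation after 60 min detection. Reaction: 1 μM ATP, 25 nM substrate, 0.5-5 nM GST-fused IKKβ 1-737 from baculovirus, pH 7.4 HEPES buffer, 1.7% DMSO, 15 min room temperature, EDTA-terminated.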

[2] = system: human monocyte stimulated cytokine production (TNF-α); experiment: Monocyte assay (LPS-stimulated TNF-α production); assay type: cell-based; details: for pIC50: 24 h, 200 ng/mL LPS, TNF-α by ELISA; for inhibition at 0.3 µM: read-out: inhibition at 300 nM in the monocyte assay
Method in brief: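 TNF-α release was measured by ELISA after 24 hrs at 37 C. Cells were stimulated with 200 ng/mL E. coli LPS, with compound added 30 minutes beforehand (0.1% DMSO vehicle). Cells were Ficoll/MACS-isolated CD14+ human monocytes adhered at 1×10^6 cells/mL, and viability was checked by trypan blue.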

| SMILES | IC50 [1] [µM] | pIC50 [2] | inhibition at 0.3 µM [2] [%] |
| --- | --- | --- | --- |
| CCCCCCNCc1ccc(-c2cc(C(N)=O)c3[nH]cc(C4CCN(S(=O)(=O)CC)CC4)c3c2)s1 [Example 201, 3-[1-(ethylsulfonyl)-4-piperidinyl]-5-{5-[(hexylamino)methyl]-2-thienyl}-1H-indole-7-carboxamide] | ≤ 10 | < 6.00 | – |
| CCN(CC)Cc1cc(-c2cc(C(N)=O)c3[nH]cc(C4CCN(S(=O)(=O)CC)CC4)c3c2)co1 [Example 248, 5-{5-[(diethylamino)methyl]-3-furanyl}-3-[1-(ethylsulfonyl)-4-piperidinyl]-1H-indole-7-carboxamide trifluoroacetate] | ≤ 10 | ≥ 5.82 | – |
| CCS(=O)(=O)N1CCC(c2c[nH]c3c(C(N)=O)cc(-c4csc(CN5CCC[C@H]5COC)c4)cc23)CC1 [Example 95, 3-[1-(ethylsulfonyl)-4-piperidinyl]-5-[5-({(2S)-2-[(methyloxy)methyl]-1-pyrrolidinyl}methyl)-3-thienyl]-1H-indole-7-carboxamide] | ≤ 10 | ≥ 5.82 | – |
| CCS(=O)(=O)N1CCC(c2c[nH]c3c(C(N)=O)cc(-c4cc(CNCC5CC5)ccc4F)cc23)CC1 [Example 339, 5-(5-{[(cyclopropylmethyl)amino]methyl}-2-fluorophenyl)-3-[1-(ethylsulfonyl)-4-piperidinyl]-1H-indole-7-carboxamide trifluoroacetate] | ≤ 10 | < 6.00 | – |
| CCS(=O)(=O)N1CCC(c2c[nH]c3c(C(N)=O)cc(-c4cncc(CNCCOC)c4)cc23)CC1 [Example 174, 3-[1-(ethylsulfonyl)-4-piperidinyl]-5-[5-({[2-(methyloxy)ethyl]amino}methyl)-3-pyridinyl]-1H-indole-7-carboxamide] | ≤ 10 | – | 0 to 60 |
| CCS(=O)(=O)N1CCC(c2c[nH]c3c(C(N)=O)cc(-c4csc(C(C(C)C)N5CCCC5)c4)cc23)CC1 (stereo not shown) [Example 250, 3-[1-(ethylsulfonyl)-4-piperidinyl]-5-{5-[2-methyl-1-(1-pyrrolidinyl)propyl]-3-thienyl}-1H-indole-7-carboxamide trifluoroacetate] | ≤ 10 | ≥ 5.82 | – |
| CCS(=O)(=O)N1CCC(c2c[nH]c3c(C(N)=O)cc(-c4ccc(CNC5CCC5)cc4)cc23)CC1 [Example 144, 5-{4-[(cyclobutylamino)methyl]phenyl}-3-[1-(ethylsulfonyl)-4-piperidinyl]-1H-indole-7-carboxamide] | ≤ 10 | ≥ 5.82 | – |
| CCS(=O)(=O)N1CCC(c2c[nH]c3c(C(N)=O)cc(-c4csc(CN(C)Cc5c(C)n[nH]c5C)c4)cc23)CC1 [Example 400, 5-(5-{[[(3,5-dimethyl-1H-pyrazol-4-yl)methyl](methyl)amino]methyl}-3-thienyl)-3-[1-(ethylsulfonyl)-4-piperidinyl]-1H-indole-7-carboxamide] | ≤ 10 | ≥ 5.82 | – |
| CCS(=O)(=O)N1CCC(c2c[nH]c3c(C(N)=O)cc(-c4cncc(CNCC(C)C)c4)cc23)CC1 [Example 180, 3-[1-(ethylsulfonyl)-4-piperidinyl]-5-(5-{[(2-methylpropyl)amino]methyl}-3-pyridinyl)-1H-indole-7-carboxamide] | ≤ 10 | – | 0 to 60 |
| CCS(=O)(=O)N1CCC(c2c[nH]c3c(C(N)=O)cc(-c4cc(F)cc(CNC[C@H]5CCCO5)c4)cc23)CC1 [Example 313, 3-[1-(ethylsulfonyl)-4-piperidinyl]-5-[3-fluoro-5-({[(2R)-tetrahydro-2-furanylmethyl]amino}methyl)phenyl]-1H-indole-7-carboxamide trifluoroacetate] | ≤ 10 | ≥ 5.82 | – |
| CCS(=O)(=O)N1CCC(c2c[nH]c3c(C(N)=O)cc(-c4cc(F)cc(CN[C@H](C)C(C)(C)C)c4)cc23)CC1 [Example 320, 3-[1-(ethylsulfonyl)-4-piperidinyl]-5-[3-fluoro-5-({[(1R)-1,2,2-trimethylpropyl]amino}methyl)phenyl]-1H-indole-7-carboxamide trifluoroacetate] | ≤ 10 | ≥ 5.82 | – |
| CCS(=O)(=O)N1CCC(c2c[nH]c3c(C(N)=O)cc(-c4cccc(C(C)NC)c4)cc23)CC1 (stereo not shown) [Example 292, 3-[1-(ethylsulfonyl)-4-piperidinyl]-5-{3-[1-(methylamino)ethyl]phenyl}-1H-indole-7-carboxamide trifluoroacetate] | ≤ 10 | ≥ 5.82 | – |
| CCS(=O)(=O)N1CCC(c2c[nH]c3c(C(N)=O)cc(-c4csc(CN(C)C(CO)CO)c4)cc23)CC1 [Example 432, 3-[1-(ethylsulfonyl)-4-piperidinyl]-5-(5-{[[2-hydroxy-1-(hydroxymethyl)ethyl](methyl)amino]methyl}-3-thienyl)-1H-indole-7-carboxamide] | ≤ 10 | ≥ 5.82 | – |
| CCS(=O)(=O)N1CCC(c2c[nH]c3c(C(N)=O)cc(-c4ccc5c(c4)CNCC5)cc23)CC1 [Example 37, 3-[1-(ethylsulfonyl)-4-piperidinyl]-5-(1,2,3,4-tetrahydro-7-isoquinolinyl)-1H-indole-7-carboxamide trifluoroacetate] | ≤ 10 | ≥ 5.82 | – |
| CCCCCNCc1ccc(-c2cc(C(N)=O)c3[nH]cc(C4CCN(S(=O)(=O)CC)CC4)c3c2)s1 [Example 184, 3-[1-(ethylsulfonyl)-4-piperidinyl]-5-{5-[(pentylamino)methyl]-2-thienyl}-1H-indole-7-carboxamide] | ≤ 10 | – | 0 to 60 |
| CCS(=O)(=O)N1CCC(c2c[nH]c3c(C(N)=O)cc(-c4cccc(C(C)NCC(C)C)c4)cc23)CC1 (stereo not shown) [Example 294, 3-[1-(ethylsulfonyl)-4-piperidinyl]-5-(3-{1-[(2-methylpropyl)amino]ethyl}phenyl)-1H-indole-7-carboxamide trifluoroacetate] | ≤ 10 | ≥ 5.82 | – |
| CCS(=O)(=O)N1CCC(c2c[nH]c3c(C(N)=O)cc(-c4cnn(CCN5CCC(N(C)C)CC5)c4)cc23)CC1 [Example 50, 5-(1-{2-[4-(dimethylamino)-1-piperidinyl]ethyl}-1H-pyrazol-4-yl)-3-[1-(ethylsulfonyl)-4-piperidinyl]-1H-indole-7-carboxamide trifluoroacetate] | ≤ 10 | < 6.00 | – |
| CC(C)S(=O)(=O)N1CCC(c2c[nH]c3c(C(N)=O)cc(-c4csc(CN5CC[C@H](O)C5)c4)cc23)CC1 [Example 395, 5-(5-{[(3S)-3-hydroxy-1-pyrrolidinyl]methyl}-3-thienyl)-3-{1-[(1-methylethyl)sulfonyl]-4-piperidinyl}-1H-indole-7-carboxamide] | ≤ 10 | ≥ 5.82 | – |
| CCS(=O)(=O)N1CCC(c2c[nH]c3c(C(N)=O)cc(-c4csc(CN(C)Cc5ccco5)c4)cc23)CC1 [Example 77, 3-[1-(ethylsulfonyl)-4-piperidinyl]-5-(5-{[(2-furanylmethyl)(methyl)amino]methyl}-3-thienyl)-1H-indole-7-carboxamide trifluoroacetate] | ≤ 10 | ≥ 5.82 | – |
| CCS(=O)(=O)N1CCC(c2c[nH]c3c(C(N)=O)cc(-c4cc(F)cc(CNCCC(C)C)c4)cc23)CC1 [Example 329, 3-[1-(ethylsulfonyl)-4-piperidinyl]-5-(3-fluoro-5-{[(3-methylbutyl)amino]methyl}phenyl)-1H-indole-7-carboxamide trifluoroacetate] | ≤ 10 | ≥ 5.82 | – |
| COCCN(C)Cc1cc(-c2cc(C(N)=O)c3[nH]cc(C4CCN(S(=O)(=O)C(C)C)CC4)c3c2)cs1 [Example 102, 3-{1-[(1-methylethyl)sulfonyl]-4-piperidinyl}-5-[5-({methyl[2-(methyloxy)ethyl]amino}methyl)-3-thienyl]-1H-indole-7-carboxamide] | ≤ 10 | ≥ 5.82 | – |
| CCCNCc1ccc(F)c(-c2cc(C(N)=O)c3[nH]cc(C4CCN(S(=O)(=O)CC)CC4)c3c2)c1 [Example 334, 3-[1-(ethylsulfonyl)-4-piperidinyl]-5-{2-fluoro-5-[(propylamino)methyl]phenyl}-1H-indole-7-carboxamide trifluoroacetate] | ≤ 10 | ≥ 5.82 | – |
| CCOCCNCc1ccc(-c2cc(C(N)=O)c3[nH]cc(C4CCN(S(=O)(=O)CC)CC4)c3c2)s1 [Example 197, 5-[5-({[2-(ethyloxy)ethyl]amino}methyl)-2-thienyl]-3-[1-(ethylsulfonyl)-4-piperidinyl]-1H-indole-7-carboxamide] | ≤ 10 | < 6.00 | – |

From US8063071B2 (GlaxoSmithKline, LLC, priority 2007, dated 2011)
